System: human σ1 receptor and human μ-opioid receptor
Assay: μ and σ1 dual binding: human σ1 receptor radioligand assay ([3H](+)-pentazocine, transfected HEK-293 membranes) and human μ-opioid receptor radioligand assay ([3H]-DAMGO, transfected CHO-K1 membranes)
Parameters: key to μ and σ1 dual binding: +: Both Ki-μ and Ki-σ1>=500 nM; ++: One Ki<500 nM while the other Ki is >=500 nM; +++: Both Ki-μ and Ki-σ1<500 nM; ++++: Both Ki-μ and Ki-σ1<100 nM

Cn1nccc1C(c1ccc(F)cn1)N1CCN(CCc2cccc(O)c2)CC1 (stereo not shown) [Example 31, 3-(2-(4-((5-fluoropyridin-2-yl)(1-methyl-1H-pyrazol-5-yl)methyl)piperazin-1-yl)ethyl)phenol]
μ and σ1 dual binding: ++

Cn1nccc1C(c1ccc(C(F)(F)F)cn1)N1CCN(CCc2ccccc2)CC1 (stereo not shown) [Example 14, 1-((1-methyl-1H-pyrazol-5-yl)(5-(trifluoromethyl)pyridin-2-yl)methyl)-4-phenethylpiperazine]
μ and σ1 dual binding: ++

Cn1nccc1C(c1ccccc1)N1CCN(CCc2ccccc2O)CC1 (stereo not shown) [Example 28, 2-(2-(4-((1-Methyl-1H-pyrazol-5-yl)(phenyl)methyl)piperazin-1-yl)ethyl)phenol]
μ and σ1 dual binding: ++

Cn1nccc1C(c1ccccc1)N1CCN(CCc2cccc(NS(C)(=O)=O)n2)CC1 (stereo not shown) [Example 44, N-(6-(2-(4-((1-methyl-1H-pyrazol-5-yl)(phenyl)methyl)piperazin-1-yl)ethyl)pyridin-2-yl)methanesulfonamide]
Ki (one combined class for Ki-μ and Ki-σ1): ≥ 500 nM

Reference: patent US10189828B2, “1-methylpyrazole-piperazine compounds having multimodal activity against pain” (LABORATORIOS DEL DR. ESTEVE S.A., priority 2014, dated 2019)
